This note sets out measurements from ChEMBL document CHEMBL4020728 (Bioorg Med Chem, 2017).

In one assay the target is Carbonic anhydrase 1 (Homo sapiens, UniProt P00915). The assay is described as follows: Inhibition of recombinant human carbonic anhydrase-1 assessed as reduction in CO2 hydration preincubated for 10 mins measured for 5 to 10 secs by stopped flow assay.
Another assay has as its target Carbonic anhydrase 9 (Homo sapiens, UniProt Q16790).
In another assay the target is Carbonic anhydrase 2 (Homo sapiens, UniProt P00918). The experiment in a line: Inhibition of recombinant human carbonic anhydrase-2 assessed as reduction in CO2 hydration preincubated for 10 mins measured for 5 to 10 secs by stopped flow assay.
The target in the next assay is Carbonic anhydrase 12 (Homo sapiens, UniProt O43570). The assay is described as follows: Inhibition of recombinant human carbonic anhydrase-12 assessed as reduction in CO2 hydration preincubated for 10 mins measured for 5 to 10 secs by stopped flow assay.
Carbonic anhydrase 12, sequence (O43570 whole entry): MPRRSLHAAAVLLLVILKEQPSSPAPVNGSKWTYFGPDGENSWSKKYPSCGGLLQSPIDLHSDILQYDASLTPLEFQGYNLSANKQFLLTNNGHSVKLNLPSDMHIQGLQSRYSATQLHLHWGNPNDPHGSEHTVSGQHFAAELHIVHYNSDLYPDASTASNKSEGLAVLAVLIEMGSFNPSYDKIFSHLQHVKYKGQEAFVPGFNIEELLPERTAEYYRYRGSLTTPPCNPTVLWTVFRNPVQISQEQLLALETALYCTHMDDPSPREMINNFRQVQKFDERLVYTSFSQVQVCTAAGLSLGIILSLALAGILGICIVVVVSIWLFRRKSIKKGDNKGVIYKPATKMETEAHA

Carbonic anhydrase 1, sequence (P00915 whole entry): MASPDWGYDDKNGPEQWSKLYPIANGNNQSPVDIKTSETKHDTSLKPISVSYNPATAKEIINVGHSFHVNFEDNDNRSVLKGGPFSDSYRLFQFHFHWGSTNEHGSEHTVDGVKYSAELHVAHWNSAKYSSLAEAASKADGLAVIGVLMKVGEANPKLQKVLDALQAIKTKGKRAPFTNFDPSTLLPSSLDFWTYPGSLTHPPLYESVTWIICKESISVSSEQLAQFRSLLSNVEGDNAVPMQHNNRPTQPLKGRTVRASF
Description for Carbonic anhydrase 9: Inhibition of recombinant human carbonic anhydrase-9 assessed as reduction in CO2 hydration preincubated for 10 mins measured for 5 to 10 secs by stopped flow assay

On to `CC#CCN1C(=O)c2ccccc2S1(=O)=O`, for which the Ki at Carbonic anhydrase 1 is over 10000 nM; on Carbonic anhydrase 9, 563 nM; at Carbonic anhydrase 2 it was over 10000 nM.
On to `O=C(O)c1ccccc1S(=O)(=O)NCc1ccc(Br)cc1`, for which the Ki at Carbonic anhydrase 1 was over 10000 nM; on Carbonic anhydrase 9, 277 nM.
As to `CCCCCNS(=O)(=O)c1ccccc1C(=O)O`, the Ki was over 10000 nM on Carbonic anhydrase 1, 392 nM on Carbonic anhydrase 9 and over 10000 nM on Carbonic anhydrase 2.
As for `CCCN1C(=O)c2ccccc2S1(=O)=O`, the results for the Ki at Carbonic anhydrase 1, at Carbonic anhydrase 9 and on Carbonic anhydrase 2 were over 10000 nM, 209 nM and over 10000 nM, respectively.
Regarding `CCCNS(=O)(=O)c1ccccc1C(=O)O`, the Ki is over 10000 nM at Carbonic anhydrase 1, 481 nM at Carbonic anhydrase 9 and over 10000 nM on Carbonic anhydrase 2.
On to `O=C(O)c1ccccc1S(=O)(=O)NCc1ccccc1`, for which the results for the Ki at Carbonic anhydrase 1 and at Carbonic anhydrase 9 were over 10000 nM and 342 nM, respectively.
For the compound `O=C1c2ccccc2S(=O)(=O)N1CCc1ccccc1`, the Ki at Carbonic anhydrase 12 was 10.4 nM; at Carbonic anhydrase 1, over 10000 nM; on Carbonic anhydrase 9 it was 76.1 nM; on Carbonic anhydrase 2, over 10000 nM.
For `CCN1C(=O)c2ccccc2S1(=O)=O`, the Ki is over 10000 nM at Carbonic anhydrase 1, 236 nM at Carbonic anhydrase 9 and over 10000 nM on Carbonic anhydrase 2.
`CC#CCNS(=O)(=O)c1ccccc1C(=O)O`: the Ki at Carbonic anhydrase 1 was over 10000 nM; on Carbonic anhydrase 9 it was 250 nM; at Carbonic anhydrase 2, over 10000 nM.
`CCCCNS(=O)(=O)c1ccccc1C(=O)O`: the Ki on Carbonic anhydrase 1 was over 10000 nM; on Carbonic anhydrase 9, 436 nM; on Carbonic anhydrase 2 it was over 10000 nM.
`CCCCCN1C(=O)c2ccccc2S1(=O)=O`: the inhibition constant (Ki) on Carbonic anhydrase 12 was 34 nM; at Carbonic anhydrase 1 it was over 10000 nM; at Carbonic anhydrase 9 it was 102 nM; on Carbonic anhydrase 2, over 10000 nM.
Consider `O=C1c2ccccc2S(=O)(=O)N1Cc1ccccc1`, for which the Ki on Carbonic anhydrase 1 was over 10000 nM; at Carbonic anhydrase 9, 89.2 nM; at Carbonic anhydrase 2, over 10000 nM.
On to `CCCCN1C(=O)c2ccccc2S1(=O)=O`, for which the inhibition constant Ki is over 10000 nM on Carbonic anhydrase 1, 164 nM on Carbonic anhydrase 9 and over 10000 nM at Carbonic anhydrase 2.
